The text below walks through data of PubChem BioAssay (NCI).

Some test systems named below: A549 NSCLC; CAKI-1 renal; HCT-116 colon; KM12 colon; NCI-H23 lung; NCI-H460 lung; OVCAR-4 ovarian; RXF 393 renal; SK-MEL-5 melanoma; SK-OV-3 ovarian; SN12C renal.
Holding throughout (assay): NCI-60 cell line screen, 48 h

Where “and” joins values, the source holds several entries; their conditions need not be identical. Equal values may be shown once.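 96-well plates; 48 h exposure; 5 concentrations. Endpoints by linear interpolation between flanking doses. Not reached: highest tested concentration assigned. GI50 = concentration required for 50% inhibition of growth. TGI marks complete inhibition of growth.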

Take `COC1(OC)C[C@H](C)[C@@]23O[C@]24c2cc(O)c5c(c2N[C@H]3C#C/C=C\C#C[C@]14O)C(=O)c1ccccc1C5=O`: the GI50 in the assay with A549 NSCLC is less than 0.001 µM; with CAKI-1 renal, less than 0.001 µM; in the assay with KM12 colon it was 0.0138 µM and 0.0249 µM; in the assay with NCI-H460 lung it was 0.005 µM; in the assay on RXF 393 renal, 0.00163 µM; in the assay on SK-MEL-5 melanoma it was 0.00172 µM. The TGI with A549 NSCLC was 0.0489 µM and 0.0352 µM; in the assay with CAKI-1 renal, 0.00561 µM and 0.00653 µM; in the assay with HCT-116 colon, 0.148 µM; in the assay on KM12 colon, 0.0847 µM and 0.108 µM; in the assay on NCI-H23 lung it was 0.0229 µM; in the assay on OVCAR-4 ovarian it was 4.2 µM. The TGI in the assay with RXF 393 renal is 0.0256 µM and 0.0186 µM; in the assay with SK-MEL-5 melanoma it was 0.0222 µM and 0.00891 µM; with SK-OV-3 ovarian, 0.0217 µM; in the assay on SN12C renal, 0.00979 µM.
Regarding `CO[C@@]12C[C@@H](CNC(=O)c3cc(Br)c[nH]3)O[C@@H]1NC(=O)N2`, the TGI in the assay on A549 NSCLC, in the assay on CAKI-1 renal, in the assay with HCT-116 colon, in the assay with KM12 colon, with NCI-H23 lung and in the assay on NCI-H460 lung was greater than 100 µM in each case. The TGI in the assay with OVCAR-4 ovarian, in the assay on RXF 393 renal, in the assay on SK-MEL-5 melanoma, in the assay with SK-OV-3 ovarian and in the assay with SN12C renal was greater than 100 µM in each case.
For the compound `COc1ccc(/C=c2/[nH]c(=O)/c(=C\c3ccc(OCc4ccccc4)cn3)[nH]c2=O)cc1`, the TGI in the assay with A549 NSCLC, in the assay with CAKI-1 renal, in the assay on HCT-116 colon, in the assay with KM12 colon, with NCI-H23 lung and with NCI-H460 lung was greater than 100 µM each time. For the same compound, the TGI is greater than 100 µM in the assay on OVCAR-4 ovarian; 83.5 µM in the assay on RXF 393 renal; greater than 100 µM in the assay on SK-MEL-5 melanoma; greater than 100 µM with SK-OV-3 ovarian; greater than 100 µM in the assay on SN12C renal.
On to `COc1nc(C#CCCCC#N)nc(OC)n1`, for which the TGI was determined as 31.9 µM in the assay on A549 NSCLC; 27.2 µM in the assay with CAKI-1 renal; 41.3 µM with HCT-116 colon; 36.3 µM in the assay on KM12 colon; 31.4 µM with NCI-H23 lung; 89.1 µM with NCI-H460 lung. Moreover, the TGI was 17.9 µM in the assay with OVCAR-4 ovarian; 30.9 µM with RXF 393 renal; 28.2 µM in the assay with SK-MEL-5 melanoma; greater than 100 µM with SK-OV-3 ovarian; 36.5 µM in the assay on SN12C renal.
Regarding `CCn1cc(C(=O)O)c(=O)c2cc(F)c(N3CCN(Cn4c(O)c(N=NC(=O)c5ccncc5)c5cc(Cl)ccc54)CC3)cc21`, the TGI in the assay with A549 NSCLC is greater than 100 µM; in the assay on CAKI-1 renal it was 72.8 µM; in the assay with HCT-116 colon it was greater than 100 µM; in the assay with KM12 colon it was greater than 100 µM; in the assay on NCI-H23 lung, greater than 100 µM; in the assay on NCI-H460 lung, greater than 100 µM. The TGI in the assay on OVCAR-4 ovarian is greater than 100 µM; with RXF 393 renal, 51.3 µM; in the assay with SK-MEL-5 melanoma, greater than 100 µM; in the assay on SK-OV-3 ovarian, 61.3 µM; with SN12C renal, greater than 100 µM.
In the case of `CN1CCC23c4ccccc4NC1C21CCN(C)C3Nc2ccccc21`, the TGI was greater than 375 µM in the assay with A549 NSCLC; greater than 164 µM in the assay with CAKI-1 renal; greater than 375 µM with HCT-116 colon; greater than 284 µM in the assay on KM12 colon; greater than 375 µM with NCI-H23 lung; greater than 375 µM in the assay with NCI-H460 lung. In addition, the TGI with OVCAR-4 ovarian is greater than 375 µM; in the assay with RXF 393 renal it was greater than 375 µM; in the assay with SK-MEL-5 melanoma it was greater than 174 µM; in the assay with SK-OV-3 ovarian it was greater than 375 µM; in the assay on SN12C renal it was greater than 375 µM.
On to `O=c1c2c([nH]c3nccn13)CCCC2`, for which the TGI in the assay on A549 NSCLC, with CAKI-1 renal, in the assay with HCT-116 colon, with KM12 colon, in the assay on NCI-H23 lung and in the assay with NCI-H460 lung was greater than 10 µM each time. The TGI in the assay with OVCAR-4 ovarian, with RXF 393 renal, with SK-MEL-5 melanoma, in the assay on SK-OV-3 ovarian and in the assay with SN12C renal was greater than 10 µM each time.
With `O=C(O)C(Cc1ccccc1)N1C(=O)c2ccccc2C1=O` (stereo not drawn), the TGI in the assay on A549 NSCLC, in the assay on CAKI-1 renal, in the assay with HCT-116 colon, with KM12 colon, in the assay on NCI-H23 lung and in the assay on NCI-H460 lung was greater than 100 µM each time. In addition, the TGI in the assay with OVCAR-4 ovarian, with RXF 393 renal, with SK-MEL-5 melanoma, in the assay on SK-OV-3 ovarian and with SN12C renal was greater than 100 µM in each case.
